pKi: −log10 of the molar value. “And” between values parts separate entries of the source, which are not always exact repeats. Equal entries are not always repeated.
Tests used:
[1] = tested on: EKP-treated Tg(elavl3:GA) zebrafish larvae; assay: Effect of ASDs on EKP-induced neuroluminescent events; type: in vivo, Danio rerio; settings: ASD at MTC (ETS 250 µM, TGB 50 µM), 18 h, 400 µM EKP, 30-min recording
Description: Recordings were performed as described earlier.

[2] = tested on: EKP-treated zebrafish larvae; assay: Effect of ASDs on EKP-induced epileptiform discharges (LFP); type: in vivo, Danio rerio; settings: ASD at MTC, 18 h pre-incubation, 400 µM EKP, 10-min LFP recording
Description: Then, the larvae were treated with 400 µM EKP (or VHC), embedded in agarose, and the LFP recordings were performed as described earlier.

c-fos expression = c-fos expression in larval heads by qPCR; type: in vivo, Danio rerio; settings: 7 dpf larval heads, 15 min, 400 μM EKP or 20 mM PTZ (positive control)
Description: To measure the seizure-related changes in c-fos mRNA expression in the CNS, 12 larvae (7 dpf) were treated with either 20 mM PTZ, 400 μM EKP or VHC for 15 min and then rapidly decapitated. The heads were immediately processed for RNA isolation followed by cDNA synthesis as described for gad1b and gad2. qPCR analysis of c-fos mRNA expression using Bio-Rad 20x PrimePCR assays (c-fos assay ID: qDreCED0015103) was performed as described for gad1b and gad2, and normalized to the housekeeping gene ef1α and β-actin 1 (primers, Table S1).

7 dpf zebrafish larvae [3] = assay: EKP-induced locomotor activity, automated video tracking; type: in vivo, Danio rerio
Description: Larvae (6 dpf) in 100 µl VHC were arrayed individually in a 96-well plate (tissue culture plate, flat bottom, Falcon, USA) and kept for 18 h in the dark at 28 °C. Prior to tracking the following day (7 dpf) 100 μl of VHC or EKP stock solution was added to each well to obtain a range of EKP concentrations (200 μM-800 μM). The plates were placed in an automated video tracking device (ZebraBox^TM apparatus; Viewpoint, Lyon, France) and 5 min later the locomotor behavior of the larvae was monitored for 2 h in the dark at 28 °C. Locomotor activity was quantified using ZebraLab™ software (Viewpoint, Lyon, France) and expressed in “actinteg” units per 5-min interval. The actinteg value is defined as the sum of all image pixel changes detected during the time window.
These seizures are defined as rapid corkscrew-like accompanied with entire body jerking and twitching, which are easily distinguished from other behavioral abnormalities (for description of phase 1 and 3 seizures, see results).

7 dpf zebrafish larvae [4] = assay: Survival rate of larvae exposed to EKP; type: in vivo, Danio rerio; settings: 400 μM EKP, first 30 min
Description: Larvae (7 dpf) were arrayed individually in a 96-well plate, exposed to EKP (200 μM-800 μM) or VHC (control) and immediately scored under a stereomicroscope for lethality every 5 min for 1 h.

7 dpf zebrafish larvae [5] = assay: Local field potential (LFP) recordings in the optic tectum after EKP; type: in vivo, Danio rerio
Description: Larvae (6 dpf) in 100 µl VHC were arrayed individually in a 96-well plate and kept for 18 h in the dark at 28 °C. […] Next, the treated larva was embedded ventral side down in 2% low melting point agarose bathed in artificial cerebrospinal fluid (ACSF, 124 mM NaCl, 2 mM KCl, 2 mM MgSO4, 2 mM CaCl2, 1.25 mM KH2PO4, 26 mM NaHCO3, and 10 mM glucose). A blunt glass electrode (soda lime glass, Hilgenberg, Germany) was pulled with DMZ Universal Puller (Zeitz, Germany) to an opening of 15–20 microns, filled with ACSF and placed on the skin above the optic tectum. The recordings were performed using WinEDR (John Dempster, University of Strathclyde, UK). Differential signal was band pass filtered at 0.3–300 Hz and digitized at 2 kHz via a PCI-6251 interface (National Instruments, UK). LFP recordings started each time exactly 2 min after the removal of the larva from the EKP solution (or VHC) and were continued for 10 min at room temperature (24 °C).
EKP-induced events were considered as epileptiform activity when their signal exceeded three times the baseline and lasted for minimum 100 msec, as described previously. Electrophysiological recordings were analyzed in a blinded way using Clampfit 10.2 software (Molecular Devices, USA).

[6] = tested on: Tg(elavl3:GA) zebrafish larvae; assay: Neuroluminescence recording of Tg(elavl3:eGFP-apoAequorin) larvae exposed to EKP; type: in vivo, Danio rerio; settings: 400 µM EKP, 30-min recording, vs VHC
Description: Tg(elavl3:eGFP-apoAequorin) zebrafish larvae were visually screened for even GFP expression at 3 dpf. Selected larvae were incubated with VHC in 40 µM CLZN-h for 18–24 h in the dark at 28 °C[38]. Excess of CLZN-h was removed by washing larvae repeatedly in E3 medium afterwards. […] The recordings started each time exactly 5 min after EKP exposure and were continued for 30 min. Photons emitted were detected by a photon-counting tube (Type H3460–04, Hamamatsu Photonics, Japan) that was positioned about 2 cm above the larvae. Light impulses were discriminated, prescaled and counted with a PC-based 32-bit counter/timer board (PCI-6601, National Instruments Corporation, Austin, TX, USA). The number of impulses occurring during a 5-sec time interval was monitored with custom-built software. Analysis of the bioluminescence recordings was done in a blinded way.

GAD = biological target: GAD; parameters: method as in PMID 29640; settings: in vitro studies; read-out: Ki for GAD inhibition; cited from earlier work
zebrafish larvae = tested on: zebrafish larvae; parameters: method as in PMID 25845493; settings: AG 200 mM − 300 mM; cited from earlier work
mice = tested on: mice; parameters: method as in PMID 29640; settings: intracerebroventricular (icv) administration; cited from earlier work
[7] = tested on: EKP-treated zebrafish larvae; assay: Effect of ASDs on EKP-induced locomotion activity; type: in vivo, Danio rerio; settings: ASD at MTC, 18 h pre-incubation, 400 µM EKP
Description: Then, the larvae were treated with 400 µM EKP (or VHC) and the locomotion activity was monitored for 30 min (after 5 min of habituation) as described earlier. The average amount of movement per 5-min intervals was measured, quantified and normalized to the EKP control group for the entire 30-min tracking session or per 5-min interval.

[8] = 7 dpf larvae, 200-800 μM tested

NS(=O)(=O)Cc1noc2ccccc12 [ZSM, zonisamide]
Effect on EKP-induced neuronal activity (cumulative photons emitted) [1]: significantly diminished | Effect on number of epileptiform discharges generated by EKP [2]: significantly attenuated

C1CCc2nnnn2CC1 [PTZ, Pentylenetetrazol]
c-fos expression compared to VHC (c-fos expression): significantly increased

ethyl ketopentenoate [EKP]
c-fos expression compared to VHC (c-fos expression): significantly increased | Locomotor activity (7 dpf zebrafish larvae [3]; 400 μM EKP, 7 dpf larvae, vs VHC): robust increase of locomotor activity | EKP concentrations at which a second phase (hyperactivity plateau) followed (7 dpf zebrafish larvae [3]; [8]): ≥ 300 µM | EKP concentrations with third phase (irreversible decline of total larval movement, paralysis, death) (7 dpf zebrafish larvae [3]; [8]): 300 to 800 µM | Fold lower concentration inducing hyperactivity compared with AG (7 dpf zebrafish larvae [3]; zebrafish larvae, AG data ref 13): 100 fold | Larval death (7 dpf zebrafish larvae [4]): without inducing any larval death | Mean frequency of epileptiform events (7 dpf zebrafish larvae [5]; 400 μM EKP 15 min, optic tectum, 10-min recording, n = 58): 55.76 ± 6.87 events/10 min and 55.76 ± 6.872 events/10 min | Larvae with multiple epileptiform events (7 dpf zebrafish larvae [5]; 400 μM EKP, number of larvae out of total): 58/58 | Averaged aequorin light signal [6]: increased

CC1(C)O[C@@H]2[C@@H](CO[C@@]3(COS(N)(=O)=O)OC(C)(C)O[C@@H]23)O1 [TPM, topiramate]
Effect on EKP-induced neuronal activity (cumulative photons emitted) [1]: significantly diminished | Effect on number of epileptiform discharges generated by EKP [2]: significantly attenuated

C=CCC(N)C(=O)O (stereo not drawn) [AG, 2-amino-4-pentenoic acid]
pKi (GAD): ~1.30 | Outcome of seizures at high AG concentrations (zebrafish larvae): lethal

CCOC(=O)Nc1ccc(NCc2ccc(F)cc2)cc1N [RGB, retigabine]
Effect on EKP-induced neuronal activity (cumulative photons emitted) [1]: significantly diminished | Effect on number of epileptiform discharges generated by EKP [2]: did not show significant effects

C=CC[C@@H](N)C(=O)O [D-AG]
ED50 for seizure induction (mice): 0.804 mg/kg

N#Cc1ccccc1-c1cc(-c2ccccn2)cn(-c2ccccc2)c1=O [PER, perampanel]
Effect on EKP-induced neuronal activity (cumulative photons emitted) [1]: significantly diminished | Effect on number of epileptiform discharges generated by EKP [2]: significantly attenuated | Effect on EKP-induced locomotion (whole 30-min recording) [7]: significantly prevented

C=CC[C@H](N)C(=O)O [L-AG]
ED50 for seizure induction (mice): 0.375 mg/kg

O=C1NC(=O)C(c2ccccc2)(c2ccccc2)N1 [PHT, phenytoin]
Effect on EKP-induced neuronal activity (cumulative photons emitted) [1]: significantly diminished | Effect on number of epileptiform discharges generated by EKP [2]: did not show significant effects

C=CCC(=O)C(=O)O [KPA, 2-keto-4-pentenoic acid]
pKi (GAD): 6.00 | ED50 for seizure induction (mice): 0.0145 mg/kg

Reference: publication PMC5543107, “Inhibition of glutamate decarboxylase (GAD) by ethyl ketopentenoate (EKP) induces treatment-resistant epileptic seizures in zebrafish” (Scientific Reports, 2017)
